Assay [1] concerns the target T1, Potassium voltage-gated channel subfamily A member 3 (Homo sapiens, UniProt P22001). The experiment in a line: cell-based. On the set-up: species or system Blood.
For assay [2], the target named is T1, Potassium voltage-gated channel subfamily A member 3. Also on record: species or system Blood.

T1 sequence (P22001 whole entry): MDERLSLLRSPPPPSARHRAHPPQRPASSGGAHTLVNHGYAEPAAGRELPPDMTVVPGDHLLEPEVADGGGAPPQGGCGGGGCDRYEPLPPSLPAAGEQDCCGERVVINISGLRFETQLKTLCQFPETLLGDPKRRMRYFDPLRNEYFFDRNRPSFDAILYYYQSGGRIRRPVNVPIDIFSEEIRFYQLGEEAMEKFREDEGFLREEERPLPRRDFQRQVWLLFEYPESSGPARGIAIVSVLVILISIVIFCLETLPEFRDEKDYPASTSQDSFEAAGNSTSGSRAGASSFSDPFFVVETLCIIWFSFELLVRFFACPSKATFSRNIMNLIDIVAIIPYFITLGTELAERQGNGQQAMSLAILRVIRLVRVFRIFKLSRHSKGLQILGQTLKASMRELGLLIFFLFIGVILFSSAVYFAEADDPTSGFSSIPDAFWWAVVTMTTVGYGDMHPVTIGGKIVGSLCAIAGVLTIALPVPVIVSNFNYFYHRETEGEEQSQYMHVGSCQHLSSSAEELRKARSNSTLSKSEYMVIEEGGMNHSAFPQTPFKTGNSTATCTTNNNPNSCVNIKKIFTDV

As for `CC[C@H](C)[C@@H]1NC(=O)[C@@H](NC(=O)[C@H](CO)NC(=O)[C@@H](N)CCCNC(=N)N)CSSC[C@@H](C(=O)O)NC(=O)[C@H]([C@@H](C)O)NC(=O)CNC(=O)[C@@H]2CSSC[C@@H]3NC(=O)[C@H](CCC(N)=O)NC(=O)[C@H](Cc4ccccc4)NC(=O)[C@H](C)NC(=O)[C@H]([C@@H](C)O)NC(=O)[C@H](CSSC[C@H](NC(=O)[C@H](Cc4ccccc4)NC(=O)[C@H](CO)NC(=O)[C@H](CC(C)C)NC(=O)[C@H](CCCNC(=N)N)NC(=O)[C@H](Cc4ccc(O)cc4)NC(=O)[C@H](CCCCN)NC(=O)[C@H](CCSC)NC(=O)[C@H](CO)NC(=O)[C@H](Cc4cnc[nH]4)NC(=O)[C@H](CCCCN)NC3=O)C(=O)N[C@@H](CCCNC(=N)N)C(=O)N[C@@H](CCCCN)C(=O)N[C@@H]([C@@H](C)O)C(=O)N2)NC(=O)[C@H](CCCNC(=N)N)NC(=O)[C@H](CO)NC(=O)[C@H](CCCNC(=N)N)NC(=O)[C@@H]2CCCN2C(=O)[C@H]([C@@H](C)CC)NC(=O)[C@H]([C@@H](C)O)NC(=O)[C@H](CC(=O)O)NC1=O`, the IC50 was 76 pM in assay [1] and 83 pM in assay [2].

On to `CC[C@H](C)[C@@H]1NC(=O)[C@@H](NC(=O)[C@H](CO)NC(=O)[C@@H](N)CCCNC(=N)N)CSSC[C@@H](C(=O)O)NC(=O)[C@H]([C@@H](C)O)NC(=O)CNC(=O)[C@@H]2CSSC[C@@H]3NC(=O)[C@H](CCC(N)=O)NC(=O)[C@H](Cc4ccccc4)NC(=O)[C@H](C)NC(=O)[C@H]([C@@H](C)O)NC(=O)[C@H](CSSC[C@H](NC(=O)[C@H](Cc4ccccc4)NC(=O)[C@H](CO)NC(=O)[C@H](CCCNC(=N)N)NC(=O)[C@H](CCCNC(=N)N)NC(=O)[C@H](Cc4ccc(O)cc4)NC(=O)[C@H](CCCCN)NC(=O)[C@H](CCSC)NC(=O)[C@H](CO)NC(=O)[C@H](Cc4cnc[nH]4)NC(=O)[C@H](CCCCN)NC3=O)C(=O)N[C@@H](CCCNC(=N)N)C(=O)N[C@@H](CCCCN)C(=O)N[C@@H]([C@@H](C)O)C(=O)N2)NC(=O)[C@H](CCCNC(=N)N)NC(=O)[C@H](CO)NC(=O)[C@H](CCCCN)NC(=O)[C@@H]2CCCN2C(=O)[C@H]([C@@H](C)CC)NC(=O)[C@H]([C@@H](C)O)NC(=O)[C@H](CC(=O)O)NC1=O`, for which the IC50 in assay [1] stood at 137 pM; in assay [2], 194 pM.

`CC[C@H](C)[C@@H]1NC(=O)[C@@H](NC(=O)[C@H](CO)NC(=O)[C@@H](N)CCCNC(=N)N)CSSC[C@@H](C(=O)O)NC(=O)[C@H]([C@@H](C)O)NC(=O)CNC(=O)[C@@H]2CSSC[C@@H]3NC(=O)[C@H](CCC(N)=O)NC(=O)[C@H](Cc4ccccc4)NC(=O)[C@H](C)NC(=O)[C@H]([C@@H](C)O)NC(=O)[C@H](CSSC[C@H](NC(=O)[C@H](Cc4ccccc4)NC(=O)[C@H](CCCNC(=N)N)NC(=O)[C@H](CC(C)C)NC(=O)[C@H](CCCNC(=N)N)NC(=O)[C@H](Cc4ccc(O)cc4)NC(=O)[C@H](CCCCN)NC(=O)[C@H](CCSC)NC(=O)[C@H](CO)NC(=O)[C@H](Cc4cnc[nH]4)NC(=O)[C@H](CCCCN)NC3=O)C(=O)N[C@@H](CCCNC(=N)N)C(=O)N[C@@H](CCCCN)C(=O)N[C@@H]([C@@H](C)O)C(=O)N2)NC(=O)[C@H](CCCNC(=N)N)NC(=O)[C@H](CO)NC(=O)[C@H](CCCCN)NC(=O)[C@@H]2CCCN2C(=O)[C@H]([C@@H](C)CC)NC(=O)[C@H]([C@@H](C)O)NC(=O)[C@H](CC(=O)O)NC1=O`: the IC50 in assay [1] is 158 pM; in assay [2], 368 pM.

With `CC[C@H](C)[C@@H]1NC(=O)[C@@H](NC(=O)[C@H](CO)NC(=O)[C@@H](N)CCCNC(=N)N)CSSC[C@@H](C(=O)O)NC(=O)[C@H]([C@@H](C)O)NC(=O)CNC(=O)[C@@H]2CSSC[C@@H]3NC(=O)[C@H](CCC(N)=O)NC(=O)[C@H](Cc4ccccc4)NC(=O)[C@H](C)NC(=O)[C@H]([C@@H](C)O)NC(=O)[C@H](CSSC[C@H](NC(=O)[C@H](Cc4ccccc4)NC(=O)[C@H](CO)NC(=O)[C@H](CC(C)C)NC(=O)[C@H](CCCNC(=N)N)NC(=O)[C@H](Cc4ccc(O)cc4)NC(=O)[C@H](CCCCN)NC(=O)[C@H](CCSC)NC(=O)[C@H](CO)NC(=O)[C@H](CCCCN)NC(=O)[C@H](CCCCN)NC3=O)C(=O)N[C@@H](CCCNC(=N)N)C(=O)N[C@@H](CCCCN)C(=O)N[C@@H]([C@@H](C)O)C(=O)N2)NC(=O)[C@H](CCCNC(=N)N)NC(=O)[C@H](CO)NC(=O)[C@H](CCCCN)NC(=O)[C@@H]2CCCN2C(=O)[C@H]([C@@H](C)CC)NC(=O)[C@H]([C@@H](C)O)NC(=O)[C@H](CC(=O)O)NC1=O`, the IC50 amounted to 41 pM in assay [1] and 89 pM in assay [2].

As for `CC[C@H](C)[C@@H]1NC(=O)[C@@H](NC(=O)[C@H](CO)NC(=O)[C@@H](N)CCCNC(=N)N)CSSC[C@@H](C(=O)O)NC(=O)[C@H]([C@@H](C)O)NC(=O)CNC(=O)[C@@H]2CSSC[C@@H]3NC(=O)[C@H](CCC(N)=O)NC(=O)[C@H](Cc4ccccc4)NC(=O)[C@H](C)NC(=O)[C@H]([C@@H](C)O)NC(=O)[C@H](CSSC[C@H](NC(=O)[C@H](Cc4ccccc4)NC(=O)[C@H](CO)NC(=O)[C@H](CCCCN)NC(=O)[C@H](CCCNC(=N)N)NC(=O)[C@H](Cc4ccc(O)cc4)NC(=O)[C@H](CCCCN)NC(=O)[C@H](CCSC)NC(=O)[C@H](CO)NC(=O)[C@H](Cc4cnc[nH]4)NC(=O)[C@H](CCCCN)NC3=O)C(=O)N[C@@H](CCCNC(=N)N)C(=O)N[C@@H](CCCCN)C(=O)N[C@@H]([C@@H](C)O)C(=O)N2)NC(=O)[C@H](CCCNC(=N)N)NC(=O)[C@H](CO)NC(=O)[C@H](CCCCN)NC(=O)[C@@H]2CCCN2C(=O)[C@H]([C@@H](C)CC)NC(=O)[C@H]([C@@H](C)O)NC(=O)[C@H](CC(=O)O)NC1=O`, the IC50 is 226 pM in assay [1] and 366 pM in assay [2].

Consider `CC[C@H](C)[C@@H]1NC(=O)[C@@H](NC(=O)[C@H](CO)NC(=O)[C@@H](N)CCCNC(=N)N)CSSC[C@@H](C(=O)O)NC(=O)[C@H]([C@@H](C)O)NC(=O)CNC(=O)[C@@H]2CSSC[C@@H]3NC(=O)[C@H](CCC(N)=O)NC(=O)[C@H](Cc4ccccc4)NC(=O)[C@H](C)NC(=O)[C@H]([C@@H](C)O)NC(=O)[C@H](CSSC[C@H](NC(=O)[C@H](Cc4ccccc4)NC(=O)[C@H](CO)NC(=O)[C@H](CC(C)C)NC(=O)[C@H](CCCNC(=N)N)NC(=O)[C@H](Cc4ccc(O)cc4)NC(=O)[C@H](CCCCN)NC(=O)[C@H](CCSC)NC(=O)[C@H](CO)NC(=O)[C@H](Cc4c[nH]cn4)NC(=O)[C@H](CCCCN)NC3=O)C(=O)N[C@@H](CCCNC(=N)N)C(=O)N[C@@H](CCCCN)C(=O)N[C@@H](CCCCN)C(=O)N2)NC(=O)[C@H](CCCNC(=N)N)NC(=O)[C@H](CO)NC(=O)[C@H](CCCCN)NC(=O)[C@@H]2CCCN2C(=O)[C@H]([C@@H](C)CC)NC(=O)[C@H]([C@@H](C)O)NC(=O)[C@H](CC(=O)O)NC1=O`, for which the IC50 in assay [1] was 5980 pM; in assay [2], 27900 pM.

Turning to `CC[C@H](C)[C@@H]1NC(=O)[C@@H](NC(=O)[C@H](CO)NC(=O)[C@@H](N)CCCNC(=N)N)CSSC[C@@H](C(=O)O)NC(=O)[C@H]([C@@H](C)O)NC(=O)CNC(=O)[C@@H]2CSSC[C@@H]3NC(=O)[C@H](CCN)NC(=O)[C@H](Cc4ccccc4)NC(=O)[C@H](C)NC(=O)[C@H]([C@@H](C)O)NC(=O)[C@H](CSSC[C@H](NC(=O)[C@H](Cc4ccccc4)NC(=O)[C@H](CO)NC(=O)[C@H](CC(C)C)NC(=O)[C@H](CCCNC(=N)N)NC(=O)[C@H](Cc4ccc(O)cc4)NC(=O)[C@H](CCCCN)NC(=O)[C@H](CCSC)NC(=O)[C@H](CO)NC(=O)[C@H](Cc4c[nH]cn4)NC(=O)[C@H](CCCCN)NC3=O)C(=O)N[C@@H](CCCNC(=N)N)C(=O)N[C@@H](CCCCN)C(=O)N[C@@H]([C@@H](C)O)C(=O)N2)NC(=O)[C@H](CCCNC(=N)N)NC(=O)[C@H](CO)NC(=O)[C@H](CCCCN)NC(=O)[C@@H]2CCCN2C(=O)[C@H]([C@@H](C)CC)NC(=O)[C@H]([C@@H](C)O)NC(=O)[C@H](CC(=O)O)NC1=O`, the IC50 stood at 86 pM in assay [1] and 223 pM in assay [2].

On to `CC[C@H](C)[C@@H]1NC(=O)[C@@H](NC(=O)[C@H](CO)NC(=O)[C@@H](N)CCCNC(=N)N)CSSC[C@@H](C(=O)N[C@@H](C)C(=O)O)NC(=O)[C@H]([C@@H](C)O)NC(=O)CNC(=O)[C@@H]2CSSC[C@@H]3NC(=O)[C@H](CCCCN)NC(=O)[C@H](Cc4ccccc4)NC(=O)[C@H](C)NC(=O)[C@H]([C@@H](C)O)NC(=O)[C@H](CSSC[C@H](NC(=O)[C@H](Cc4ccccc4)NC(=O)[C@H](CO)NC(=O)[C@H](CC(C)C)NC(=O)[C@H](CCCNC(=N)N)NC(=O)[C@H](Cc4ccc(O)cc4)NC(=O)[C@H](CCCCN)NC(=O)[C@H](CCSC)NC(=O)[C@H](CO)NC(=O)[C@H](Cc4cnc[nH]4)NC(=O)[C@H](CCCCN)NC3=O)C(=O)N[C@@H](CCCNC(=N)N)C(=O)N[C@@H](CCCCN)C(=O)N[C@@H]([C@@H](C)O)C(=O)N2)NC(=O)[C@H](CCCNC(=N)N)NC(=O)[C@H](CO)NC(=O)[C@H](CCCCN)NC(=O)[C@@H]2CCCN2C(=O)[C@H]([C@@H](C)CC)NC(=O)[C@H]([C@@H](C)O)NC(=O)[C@H](CC(=O)O)NC1=O`, for which the values for the 50% inhibitory concentration (IC50) in assay [1] and in assay [2] were 138 pM and 266 pM, respectively.

On to `CCCC[C@@H]1NC(=O)[C@H](CO)NC(=O)[C@H](Cc2c[nH]cn2)NC(=O)[C@H](CCCCN)NC(=O)[C@@H]2CSSC[C@@H]3NC(=O)[C@H]([C@@H](C)O)NC(=O)[C@H](CCCCN)NC(=O)[C@H](CCCNC(=N)N)NC(=O)[C@H](CSSC[C@H](NC(=O)[C@H](CCCNC(=N)N)NC(=O)[C@H](CO)NC(=O)[C@H](CCCCN)NC(=O)[C@@H]4CCCN4C(=O)[C@H]([C@@H](C)CC)NC(=O)[C@H]([C@@H](C)O)NC(=O)[C@H](CC(=O)O)NC(=O)[C@H]([C@@H](C)CC)NC(=O)[C@@H](NC(=O)[C@H](CO)NC(=O)[C@@H](N)CCCNC(=N)N)CSSC[C@@H](C(N)=O)NC(=O)[C@H]([C@@H](C)O)NC(=O)CNC3=O)C(=O)N[C@@H]([C@@H](C)O)C(=O)N[C@@H](C)C(=O)N[C@@H](Cc3ccccc3)C(=O)N[C@@H](CCCCN)C(=O)N2)NC(=O)[C@H](Cc2ccccc2)NC(=O)[C@H](CO)NC(=O)[C@H](CC(C)C)NC(=O)[C@H](CCCNC(=N)N)NC(=O)[C@H](Cc2ccc(O)cc2)NC(=O)[C@H](CCCCN)NC1=O`, for which the IC50 in assay [1] was found to be 823 pM; in assay [2], 1100 pM.

One may read the IC50 as the concentration that inhibits the measured activity by half. Read a low IC50 as greater potency.

For the origin of these results see ChEMBL document CHEMBL3608278 (J Med Chem, 2015).
